Results: patent US20070248672A1, “Indole and Azaindole Derivatives with Antitumor Action” (priority 2004, published 2007)
Read-outs that look alike come from different tables or passages of the source.

How the values were obtained:
HT29/Mit cells = assay: Antiproliferative activity, 72 h treatment, SRB assay, HT29/Mit resistant line; format: cell-based, human; conditions: Homo sapiens
Procedure: HT29 and HT29/Mit (line obtained by prolonged exposure to mitoxantrone, and characterised by overexpression of BCRP, which confers cross resistance to topotecan, irinotecan and to its metabolite SN38): maintained in McCoy 5A medium+10% FCS.
2.2 Scheme of the Antiproliferative Activity Experiment (Treatment Time: 72 Hours)
The cells (HT29 and HT29/Mit: 40,000 cells/ml, LoVo, LoVo/Dx and HCT116: 50,000 cells/ml) are seeded in 100 μl of the respective culture media in 96-well plates. 24 hours after seeding, an aliquot (10 μl) of drug at the various concentrations is added. In the samples in which the effect of the combination of two compounds is to be tested the inhibitor is added immediately before the cytotoxic. For each dose or combination of doses/drugs the effect of the treatment is determined in 4-8 replicates.
After 72 hours of treatment the antiproliferative effect is evaluated using the sulforhodamine B (SRB) assay: the cells are fixed by adding 25 μl of 50% TCA to each well and left for 1 hour at 4° C. After washing them with water and allowing them to dry, 100 μl of 0.4% SRB in 1% acetic acid are added and left for 30 minutes at room temperature. After 4 washes in 1% acetic acid, they are left to dry then the dye fixed by the proteins is dissolved under basic conditions with 100 μl 10 mM cold Tris and the solution is read using a spectrophotometer at 550 nm.
Percentage cell growth is calculated as the optical density of treated samples compared to the optical density of controls (untreated cells).

[1] = test system: HT29/Mit human colon carcinoma xenografts; assay: HT29/Mit human colon carcinoma xenograft, antitumor activity; format: in vivo, athymic Swiss nude mice
Text: 1.1 Model of HT29/Mit human colon carcinoma xenografts-Antitumor activity Female athymic Swiss nude mice (8-10 weeks old) (Charles River, Calco, Italy) were used for the experiments. The animals were maintained at constant temperature and humidity, and were allowed to eat and drink freely. The experimental protocol was approved by the Ethics Committee for Animal Experimentation of the Istituto Nazionale Tumori of Milan. The antitumour effectiveness of the compounds of the invention under discussion was tested on athymic mouse models implanted with HT29 and/or HT29/Mit tumour cells: this latter variety is highly resistant to topotecan treatment. The tumour cells were implanted in vivo via subcutaneous injection of 10^7 cells taken from in vitro cultures. Randomized groups of five mice with bilateral subcutaneous tumours were used for the experiment. Topotecan or other known antitumour agents (dissolved in distilled water or an appropriate solvent) and the compounds of the invention (dissolved in Cremophor EL: ethanol: saline solution in the proportions 5:5:90, or in an appropriate solvent) were administered orally from the third day, alone or in combination, in agreement with a treatment scheme selected in an appropriate manner depending on the type of compound to be studied. The weight (or volume) of the tumour in treated mice compared to controls is represented graphically on the y-axis against time (x-axis).

**Q.** For `COC(=O)c1[nH]c2cc(OC)c(OC)cc2c1-c1ccc(OC)cc1` [Example 1, 5,6-Dimethoxy-3-(4-methoxy-phenyl)-1H-indole-2-carboxylic acid methyl ester], which IC50 (HT29/Mit cells; HT-29, HT29/Mit, after 72 hours of treatment, range stated for the group, read-out: IC50 values in the resistant line) is on record?
**A.** 0.1 to 3 µM

**Q.** What about the IC50 (HT29/Mit cells; HT-29/Mit resistant line, 72 h treatment, read-out: Antiproliferative activity (IC50 ± S.D.) HT-29/Mit) of the same compound?
**A.** 1 ± 0.9 µM

**Q.** What about the “antitumoral efficacy of combined administration with topotecan” value ([1]; 30 mg/kg p.o. with topotecan 1 or 2 mg/kg p.o., statistically significant with 1 mg topotecan) of the same compound?
**A.** increased antitumoral efficacy

**Q.** What about the tumor growth inhibition ([1]; administered alone, 30 mg/kg p.o., after 7 days of treatment, statistically significant) of the same compound?
**A.** 43%
